Results from ChEMBL document CHEMBL1921725, “Synthesis and SAR development of novel P2X7 receptor antagonists for the treatment of pain: part 2” (Bioorg Med Chem Lett, 2011).
Active and inactive are the calls of the source. The calls are words filed in the database; no cut-off is given here.

Columns and labels:
[1] = AUC in rapid rat model at 10 mg/kg, po; type: ADME, organism-based; set-up: dose 10 mg/kg, route oral; details: in vivo
[2] = target: T1, P2X purinoceptor 7 (Homo sapiens, UniProt Q99572); assay: Antagonist activity at P2X7 receptor in LPS-stimulated human whole blood assessed as inhibition of ATP-induced IL1-beta production treated 30 mins before LPS challenge measured after 3 hrs by ELISA; type: functional, tissue-based
T1 sequence (Q99572 whole entry): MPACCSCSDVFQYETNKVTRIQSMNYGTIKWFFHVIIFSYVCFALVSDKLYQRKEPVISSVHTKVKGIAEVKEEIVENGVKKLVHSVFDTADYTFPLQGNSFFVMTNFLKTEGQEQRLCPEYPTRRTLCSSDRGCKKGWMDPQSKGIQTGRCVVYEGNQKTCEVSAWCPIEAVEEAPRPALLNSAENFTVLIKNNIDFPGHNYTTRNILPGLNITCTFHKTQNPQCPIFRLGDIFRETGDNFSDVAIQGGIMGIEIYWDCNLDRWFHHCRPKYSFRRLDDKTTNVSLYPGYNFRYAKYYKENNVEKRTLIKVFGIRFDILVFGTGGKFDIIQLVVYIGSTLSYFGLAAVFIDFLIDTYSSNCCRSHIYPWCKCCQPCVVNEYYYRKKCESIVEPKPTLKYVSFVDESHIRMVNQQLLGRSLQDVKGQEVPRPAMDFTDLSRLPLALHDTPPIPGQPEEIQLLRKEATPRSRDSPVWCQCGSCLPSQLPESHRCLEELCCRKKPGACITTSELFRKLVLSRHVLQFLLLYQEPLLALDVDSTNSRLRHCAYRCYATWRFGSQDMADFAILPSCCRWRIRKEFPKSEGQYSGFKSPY

[3] = Plasma concentration in rapid rat model plasma at 10 mg/kg, po after 6 hrs; type: ADME, organism-based; set-up: dose 10 mg/kg, route oral
[4] = Inhibition of chloride channel at 10 uM
[5] = tested on: Rattus norvegicus; assay: Analgesic activity in rat chronic constriction injury neuroinflammatory pain model at 1 to 3 mg/kg, po after 4 hrs; type: functional, organism-based
[6] = target: T2, P2X purinoceptor 4 (Homo sapiens) (UniProt Q99571); assay: Inhibition of P2X4 receptor at 10 uM
T2 sequence (whole entry): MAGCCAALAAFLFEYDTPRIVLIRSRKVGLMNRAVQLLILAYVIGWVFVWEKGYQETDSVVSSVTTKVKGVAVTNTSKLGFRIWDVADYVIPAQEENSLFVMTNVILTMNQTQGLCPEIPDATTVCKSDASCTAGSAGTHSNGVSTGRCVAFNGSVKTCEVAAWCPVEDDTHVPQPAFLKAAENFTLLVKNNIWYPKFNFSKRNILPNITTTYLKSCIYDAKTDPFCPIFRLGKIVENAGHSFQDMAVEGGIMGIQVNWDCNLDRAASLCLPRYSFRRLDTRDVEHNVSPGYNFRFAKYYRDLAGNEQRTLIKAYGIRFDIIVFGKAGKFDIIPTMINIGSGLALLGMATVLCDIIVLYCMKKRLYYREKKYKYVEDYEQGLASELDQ

[7] = Inhibition of L-type calcium channel diltiazem binding site at 10 uM
[8] = target: T3, P2X purinoceptor 7 (Rattus norvegicus, UniProt Q64663); assay: Antagonist activity at P2X7 receptor in rat whole blood; type: functional, tissue-based
T3 sequence (Q64663 whole entry): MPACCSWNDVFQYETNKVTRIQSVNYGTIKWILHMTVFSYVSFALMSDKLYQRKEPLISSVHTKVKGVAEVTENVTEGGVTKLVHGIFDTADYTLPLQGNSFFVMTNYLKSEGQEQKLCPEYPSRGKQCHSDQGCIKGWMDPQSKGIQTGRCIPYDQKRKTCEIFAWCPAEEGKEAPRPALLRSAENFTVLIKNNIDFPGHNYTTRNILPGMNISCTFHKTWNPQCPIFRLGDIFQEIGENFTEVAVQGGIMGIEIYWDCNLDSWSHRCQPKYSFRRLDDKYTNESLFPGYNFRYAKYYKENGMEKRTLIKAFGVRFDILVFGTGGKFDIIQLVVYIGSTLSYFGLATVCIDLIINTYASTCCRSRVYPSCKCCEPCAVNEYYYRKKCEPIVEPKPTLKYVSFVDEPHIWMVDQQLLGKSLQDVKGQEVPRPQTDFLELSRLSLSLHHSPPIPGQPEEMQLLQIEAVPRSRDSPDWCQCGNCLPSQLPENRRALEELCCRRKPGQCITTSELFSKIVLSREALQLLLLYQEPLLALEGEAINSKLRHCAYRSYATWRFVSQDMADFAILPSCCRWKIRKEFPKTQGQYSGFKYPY

[9] = tested on: Rattus norvegicus; assay: Antihyperalgesic activity in rat mono-iodacetate-induced hyperalgesia model at 1 to 3 mg/kg, po after 4 hrs; type: functional, organism-based
[10] = target: Sodium-dependent noradrenaline transporter (Homo sapiens) (UniProt P23975); assay: Inhibition of norepinephrine transporter at 10 uM
[11] = Inhibition of sodium channel site 2 at 10 uM
[12] = tested on: Rattus norvegicus; assay: Antihyperalgesic activity in rat mono-iodacetate-induced hyperalgesia model at 50 mg/kg, po after 4 hrs relative to naproxen; type: functional, organism-based; set-up: dose 50 mg/kg
[13] = tested on: Rattus norvegicus; assay: Analgesic activity in rat streptozocin-induced diabetic neuropathy model at 10 mg/kg, po after 4 hrs; type: functional, organism-based; set-up: dose 10 mg/kg
[14] = tested on: Rattus norvegicus; assay: Analgesic activity in rat streptozocin-induced diabetic neuropathy model at 10 mg/kg, po after 4 hrs relative to gabapentin; type: functional, organism-based; set-up: dose 10 mg/kg
[15] = tested on: Rattus norvegicus; assay: Analgesic activity in rat spinal nerve ligation neuropathic pain model at 10 to 30 mg/kg, po after 4 hrs relative to pregabalin; type: functional, organism-based
[16] = tested on: Rattus norvegicus; assay: Analgesic activity in rat chronic constriction injury neuroinflammatory pain model at 60 mg/kg, po after 4 hrs relative to gabapentin; type: functional, organism-based; set-up: dose 60 mg/kg

Sodium-dependent noradrenaline transporter (Homo sapiens), sequence (P23975 whole entry): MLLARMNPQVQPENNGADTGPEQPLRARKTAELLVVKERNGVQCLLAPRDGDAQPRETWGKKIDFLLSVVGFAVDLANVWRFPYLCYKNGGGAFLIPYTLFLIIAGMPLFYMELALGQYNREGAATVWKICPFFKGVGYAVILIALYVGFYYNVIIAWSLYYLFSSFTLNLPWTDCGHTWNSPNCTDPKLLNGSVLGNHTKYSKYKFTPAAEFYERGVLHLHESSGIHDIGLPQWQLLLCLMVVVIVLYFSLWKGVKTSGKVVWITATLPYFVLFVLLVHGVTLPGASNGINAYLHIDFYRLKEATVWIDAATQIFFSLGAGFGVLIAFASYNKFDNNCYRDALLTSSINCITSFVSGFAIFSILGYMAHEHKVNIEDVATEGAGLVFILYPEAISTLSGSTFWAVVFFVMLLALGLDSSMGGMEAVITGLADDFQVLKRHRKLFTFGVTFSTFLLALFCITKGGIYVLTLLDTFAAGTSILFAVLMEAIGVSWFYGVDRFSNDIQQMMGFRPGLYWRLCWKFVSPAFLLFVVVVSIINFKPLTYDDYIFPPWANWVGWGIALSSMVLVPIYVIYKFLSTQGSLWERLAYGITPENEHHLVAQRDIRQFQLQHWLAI

Structure (SMILES)	AUC [1] [µM·h]	IC50 [2] [nM]	concentration at 6 h [3] [nM]	other results
CCN1C(=O)c2nc(-c3ccc(-c4cccc(C)c4)nc3)n(Cc3ccc(F)c(F)c3)c2N2CC(C)(C)N=C12	0.231	25	–	–
CCN1C(=O)c2nc(-c3ccc(-c4ccc(F)cc4)nc3)n(Cc3ccc(F)c(F)c3)c2N2CC(C)(C)N=C12	3.56	45	897	–
CCN1C(=O)c2nc(-c3ccc(-c4ccccc4)cc3)n(Cc3ccccc3F)c2N2C[C@@H](C(C)C)N=C12	–	937	–	–
CCN1C(=O)c2nc(-c3ccc(-c4ccccc4OC)nc3)n(Cc3ccc(F)c(F)c3)c2N2CC(C)(C)N=C12	1.62	101	224	–
CCN1C(=O)c2nc(-c3ccc(-c4ccccc4)cc3)n(Cc3ccc(F)c(F)c3)c2N2C[C@@H](C(C)C)N=C12	3.76	178	392	–
CCN1C(=O)c2nc(-c3ccc(-c4ccccc4)cc3)n(Cc3ccc(F)c(F)c3)c2N2CCC(C)(C)N=C12	–	108	–	–
CCN1C(=O)c2nc(-c3ccc(-c4ccccc4)cc3)n(Cc3cc(F)ccc3F)c2N2C[C@@H](C(C)C)N=C12	–	1040	–	–
CCN1C(=O)c2nc(-c3ccc(-c4cccc(C(F)(F)F)c4)nc3)n(Cc3ccc(F)c(F)c3)c2N2CC(C)(C)N=C12	1.84	104	395	–
CCN1C(=O)c2nc(-c3ccc(-c4cccc(OC(F)(F)F)c4)nc3)n(Cc3ccc(F)c(F)c3)c2N2CC(C)(C)N=C12	–	110	–	–
CCN1C(=O)c2nc(-c3ccc(-c4cccc(F)c4)nc3)n(Cc3ccc(F)c(F)c3)c2N2CC(C)(C)N=C12	3.56	28	897	–
CCN1C(=O)c2nc(-c3ccc(-c4ccccc4)cc3)n(Cc3ccc(F)cc3)c2N2CC(C)(C)N=C12	–	276	–	–
CCN1C(=O)c2nc(-c3ccc(-c4ccc(OC(F)(F)F)cc4)nc3)n(Cc3ccc(F)c(F)c3)c2N2CC(C)(C)N=C12	–	1940	–	–
CCN1C(=O)c2nc(-c3ccc(-c4ccc(C)cc4)nc3)n(Cc3ccc(F)c(F)c3)c2N2CC(C)(C)N=C12	–	39	–	–
CCN1C(=O)c2nc(-c3ccc(-c4ccccc4F)nc3)n(Cc3ccc(F)c(F)c3)c2N2CC(C)(C)N=C12	2.71	52	537	–
CCN1C(=O)c2nc(-c3ccc(-c4ccccc4)cc3)n(Cc3cc(F)cc(F)c3)c2N2C[C@@H](C(C)C)N=C12	1.11	107	93	–
CCN1C(=O)c2nc(-c3ccc(-c4ccccc4)cc3)n(Cc3cccc(F)c3)c2N2C[C@@H](C(C)C)N=C12	–	269	–	–
CCN1C(=O)c2nc(-c3ccc(-c4ccc(OC)cc4)nc3)n(Cc3ccc(F)c(F)c3)c2N2CC(C)(C)N=C12	–	50	–	–
CCN1C(=O)c2nc(-c3ccc(-c4ccccc4)cc3)n(Cc3cccc(F)c3F)c2N2C[C@@H](C(C)C)N=C12	–	870	–	–
CCN1C(=O)c2nc(-c3ccc(-c4ccc(F)cc4F)nc3)n(Cc3ccc(F)c(F)c3)c2N2CC(C)(C)N=C12	4.14	95	537	–
CCN1C(=O)c2nc(-c3ccc(-c4ccccc4)cc3)n(Cc3ccc(F)c(F)c3)c2N2CC3(CCCCC3)N=C12	–	388	–	–
CCN1C(=O)c2nc(-c3ccc(-c4ccc(C(F)(F)F)cc4)nc3)n(Cc3ccc(F)c(F)c3)c2N2CC(C)(C)N=C12	5.68	137	1570	–
CCN1C(=O)c2nc(-c3ccc(-c4ccccc4)cc3)n(Cc3cc(F)cc(F)c3)c2N2CC(C)(C)N=C12	–	91	–	–
CCN1C(=O)c2nc(-c3ccc(-c4ccccc4)cc3)n(Cc3ccc(F)cc3F)c2N2CC(C)(C)N=C12	–	700	–	–
CCN1C(=O)c2nc(-c3ccc(-c4ccccc4)nc3)n(Cc3ccc(F)c(F)c3)c2N2CC(C)(C)N=C12	13.7	24	2640	–
CCN1C(=O)c2nc(-c3ccc(-c4cc(F)cc(F)c4)nc3)n(Cc3ccc(F)c(F)c3)c2N2CC(C)(C)N=C12	7.54	55	1260	–
CCN1C(=O)c2nc(-c3ccc(-c4ccccc4)cc3)n(Cc3ccc(F)cc3)c2N2C[C@@H](C(C)C)N=C12	–	237	–	–
CCN1C(=O)c2nc(-c3ccc(-c4ccccc4)cc3)n(Cc3ccc(F)c(F)c3)c2N2CC(C)(C)N=C12	6.86	85	1370	inhibition [4]: > 80%; Activity [5]: Active; inhibition [6]: 55%; inhibition [7]: > 80%; IC50 [8]: 121 nM; Activity [9]: Active; inhibition [10]: > 80%; inhibition [11]: > 80%; Activity [12]: Active; Activity [13]: Active; Activity [14]: Active; Activity [15]: Active; Activity [16]: Active
CCN1C(=O)c2nc(-c3ccc(-c4ccccc4)cc3)n(Cc3ccc(F)cc3F)c2N2C[C@@H](C(C)C)N=C12	–	845	–	–
